Biological target: 5-HT2A receptor (Homo sapiens (Human), UniProt P28223)
Assay: Radioligand binding assay ([3H]5-HT competition), 5-HT2A
Details: [3H]5-HT radioligand, membranes of HEK293 cells expressing recombinant 5-HT2A; Ki from IC50 by Cheng-Prusoff; read-out: 5-HT2A serotonin binding Ki value
Method: Competition binding experiments consisted of addition of 5 μL of serially diluted test compound, 50 μL of radioligand stock diluted in Assay Buffer (20 mM HEPES, pH 7.4, 10 mM MgCl2), and 145 μL of diluted membrane expressing the receptor of interest to 96-well microtiter plates, which were then incubated for one hour at room temperature. Assay incubations were terminated by rapid filtration through Perkin Elmer GF/C filtration plates under vacuum pressure using a 96-well Packard filtration apparatus, followed by washing the filter plates several times with ice cold Assay Buffer. Plates were then dried at 45° C. for a minimum of four hours. Finally, 25 μL of BetaScint scintillation cocktail was added to each well and the plates were counted in a Packard TopCount scintillation counter. In each competition study, test compounds were assayed at 10 concentrations with three replicates at each test concentration. Dose-response curves were constructed to determine IC50 values and these were converted to corresponding Ki values using the Cheng-Prusoff equation.

Chain of 5-HT2A receptor (P28223 whole entry): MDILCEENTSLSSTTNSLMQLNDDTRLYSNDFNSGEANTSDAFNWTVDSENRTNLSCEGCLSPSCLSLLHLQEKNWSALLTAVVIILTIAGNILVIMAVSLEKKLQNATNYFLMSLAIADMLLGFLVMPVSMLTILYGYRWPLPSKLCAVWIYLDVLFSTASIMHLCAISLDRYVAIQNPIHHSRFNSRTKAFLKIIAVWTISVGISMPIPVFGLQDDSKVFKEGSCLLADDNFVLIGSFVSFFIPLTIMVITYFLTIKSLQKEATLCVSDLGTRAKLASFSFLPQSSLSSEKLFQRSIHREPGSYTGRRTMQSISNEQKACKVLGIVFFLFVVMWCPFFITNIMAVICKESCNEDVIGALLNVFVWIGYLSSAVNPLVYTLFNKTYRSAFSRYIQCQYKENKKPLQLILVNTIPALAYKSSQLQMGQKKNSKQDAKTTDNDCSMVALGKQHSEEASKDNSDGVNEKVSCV

| Compound | Ki |
| --- | --- |
| Cc1noc(C)c1-c1cc(NC(=O)C2CC2)ccc1OCCN1CCN2C(=O)CCC2C1 (centres unmarked) [Compound 138, N-(3-(3,5-dimethylisoxazol-4-yl)-4-(2-(6-oxohexahydropyrrolo[1,2-a]pyrazin-2(1H)-yl)ethoxy)phenyl)cyclopropanecarboxamide] | 24.6 nM |
| Cc1noc(C)c1-c1cc(NC(=O)C2CC2)ccc1OCCN1CC2(COC2)C1 [Compound 155, N-[3-(3,5-dimethylisoxazol-4-yl)-4-[2-(2-oxa-6-azaspiro[3.3]heptan-6-yl)ethoxy]phenyl]cyclopropanecarboxamide] | 22 nM |
| COC1(CC(=O)Nc2ccc(OC[C@H]3CCCCN3)c(-c3c(C)noc3C)c2)CC1 [Compound 228, (R)—N-(3-(3,5-dimethylisoxazol-4-yl)-4-(piperidin-2-ylmethoxy)phenyl)-2-(1-methoxycyclopropyl)acetamide] | 66.4 nM |
| Cc1cnsc1C(=O)Nc1ccc(OC[C@H]2CCCCN2)c(-c2c(C)noc2C)c1 [Compound 214, (R)—N-(3-(3,5-dimethylisoxazol-4-yl)-4-(piperidin-2-ylmethoxy)phenyl)-4-methylisothiazole-5-carboxamide] | 3.05 nM |
| Cc1nnsc1C(=O)Nc1ccc(OC[C@H]2CCCCN2)c(-c2c(C)noc2C)c1 [Compound 215, (R)—N-(3-(3,5-dimethylisoxazol-4-yl)-4-(piperidin-2-ylmethoxy)phenyl)-4-methyl-1,2,3-thiadiazole-5-carboxamide] | 18.4 nM |
| CC(=O)N1CCN(CCOc2ccc(NC(=O)C3CC3)cc2-c2c(C)noc2C)CC1 [Compound 168, N-[4-[2-(4-acetylpiperazin-1-yl)ethoxy]-3-(3,5-dimethylisoxazol-4-yl)phenyl]cyclopropanecarboxamide] | 12.2 nM |
| Cc1noc(C)c1-c1cc(NC(=O)C2CC2)ccc1OCCN1CCOC(=O)CC1 [Compound 137, N-[3-(3,5-dimethylisoxazol-4-yl)-4-[2-(7-oxo-1,4-oxazepan-4-yl)ethoxy]phenyl]cyclopropanecarboxamide] | 551 nM |
| N-(4-(2-(azetidin-1-yl)ethoxy)-3-(3,5-dimethylisoxazol-4-yl)phenyl)-2-(5-fluoropyridin-2-yl)acetamide [Compound 129] | 182 nM |
| Cc1noc(C)c1-c1cc(NC(=O)C[C@@H]2CCOC2)ccc1OC[C@H]1CCCCN1 [Compound 201, N-(3-(3,5-dimethylisoxazol-4-yl)-4-(((R)-piperidin-2-yl)methoxy)phenyl)-2-((S)-tetrahydrofuran-3-yl)acetamide] | 11.9 nM |
| Cc1noc(C)c1-c1cc(N(C)C(=O)C2CC2)ccc1OC[C@H]1CCCCN1 [Compound 236, N-[3-(3,5-dimethylisoxazol-4-yl)-4-[[(2R)-2-piperidyl]methoxy]phenyl]-N-methyl-cyclopropanecarboxamide] | 63900 nM |
| Cc1noc(C)c1-c1cc(NC(=O)C2CC2)ccc1OC[C@H]1COCCN1 [Compound 173, (R)—N-(3-(3,5-dimethylisoxazol-4-yl)-4-(morpholin-3-ylmethoxy)phenyl)cyclopropanecarboxamide] | 96.9 nM |
| Cc1noc(C)c1-c1cc(NC(=O)C2CC2)ccc1OCCN1CCC(CC(=O)O)CC1 [Compound 158, 2-[1-[2-[4-(cyclopropanecarbonylamino)-2-(3,5-dimethylisoxazol-4-yl)phenoxy]ethyl]-4-piperidyl]acetic acid] | 233 nM |
| Cc1noc(C)c1-c1cc(NC(=O)c2cccc(C(F)(F)F)c2)ccc1OCCN1CCOCC1 [Compound 165, N-[3-(3,5-dimethylisoxazol-4-yl)-4-(2-morpholinoethoxy)phenyl]-3-(trifluoromethyl)benzamide] | 1.08 nM |
| Cc1cnn(C)c1C(=O)Nc1ccc(OC[C@H]2CCCCN2)c(-c2c(C)noc2C)c1 [Compound 208, (R)—N-(3-(3,5-dimethylisoxazol-4-yl)-4-(piperidin-2-ylmethoxy)phenyl)-1,4-dimethyl-1H-pyrazole-5-carboxamide] | 9.66 nM |
| CCOCCC(=O)Nc1ccc(OCCN2CCCC2)c(-c2c(C)noc2C)c1 [Compound 101, N-(3-(3,5-dimethylisoxazol-4-yl)-4-(2-(pyrrolidin-1-yl)ethoxy)phenyl)-3-ethoxypropanamide] | 78.3 nM |
| Cc1noc(C)c1-c1cc(NC(=O)C2(F)CC2)ccc1OCCN1C[C@@H]2C[C@H]1CO2 [Compound 162, N-[3-(3,5-dimethylisoxazol-4-yl)-4-[2-[(1S,4S)-2-oxa-5-azabicyclo[2.2.1]heptan-5-yl]ethoxy]phenyl]-1-fluoro-cyclopropanecarboxamide] | 4.7 nM |
| Cc1noc(C)c1-c1cc(NC(=O)c2cnsc2)ccc1OC[C@H]1CCCCN1 [Compound 186, (R)—N-(3-(3,5-dimethylisoxazol-4-yl)-4-(piperidin-2-ylmethoxy)phenyl)isothiazole-4-carboxamide] | 7.71 nM |
| Cc1noc(C)c1-c1cc(NC(=O)C2CC2)ccc1OCCN1CC[C@H](O)C1 [Compound 147, (S)—N-(3-(3,5-dimethylisoxazol-4-yl)-4-(2-(3-hydroxypyrrolidin-1-yl)ethoxy)phenyl)cyclopropanecarboxamide] | 25.2 nM |
| Cc1noc(C)c1-c1cc(NC(=O)c2ccnn2C)ccc1OCCN1CCC1 [Compound 118, N-(4-(2-(azetidin-1-yl)ethoxy)-3-(3,5-dimethylisoxazol-4-yl)phenyl)-1-methyl-1H-pyrazole-5-carboxamide] | 18.9 nM |
| Cc1noc(C)c1-c1cc(NC(=O)c2ccnn2C)ccc1OCCN1CCCC1 [Compound 116, N-[3-(3,5-dimethylisoxazol-4-yl)-4-(2-pyrrolidin-1-ylethoxy)phenyl]-2-methyl-pyrazole-3-carboxamide] | 6.15 nM |
| Cc1noc(C)c1-c1cc(NC(=O)c2cnn(C)c2C)ccc1OC[C@H]1CCCCN1 [Compound 211, (R)—N-(3-(3,5-dimethylisoxazol-4-yl)-4-(piperidin-2-ylmethoxy)phenyl)-1,5-dimethyl-1H-pyrazole-4-carboxamide] | 40.9 nM |
| Cc1noc(C)c1-c1cc(NC(=O)c2ccnn2C)ccc1OC[C@H]1CCCCN1 [Compound 177, N-[3-(3,5-dimethylisoxazol-4-yl)-4-[[(2R)-2-piperidyl]methoxy]phenyl]-2-methyl-pyridinerazole-3-carboxamide] | 4.22 nM |
| Cc1noc(C)c1-c1cc(NC(=O)c2ncoc2C)ccc1OC[C@H]1CCCCN1 [Compound 185, (R)—N-(3-(3,5-dimethylisoxazol-4-yl)-4-(piperidin-2-ylmethoxy)phenyl)-5-methyloxazole-4-carboxamide] | 8.77 nM |
| Cc1noc(C)c1-c1cc(NC(=O)c2ncsc2C)ccc1OC[C@H]1CCCCN1 [Compound 188, (R)—N-(3-(3,5-dimethylisoxazol-4-yl)-4-(piperidin-2-ylmethoxy)phenyl)-5-methylthiazole-4-carboxamide] | 4.5 nM |
| Cc1noc(C)c1-c1cc(NC(=O)C2(CF)CC2)ccc1OC[C@H]1CCCCN1 [Compound 200, (R)—N-(3-(3,5-dimethylisoxazol-4-yl)-4-(piperidin-2-ylmethoxy)phenyl)-1-(fluoromethyl)cyclopropane-1-carboxamide] | 9.08 nM |
| CO[C@@H]1CCN(CCOc2ccc(NC(=O)C3CC3)cc2-c2c(C)noc2C)C1 [Compound 145, (R)—N-(3-(3,5-dimethylisoxazol-4-yl)-4-(2-(3-methoxypyrrolidin-1-yl)ethoxy)phenyl)cyclopropanecarboxamide] | 5.51 nM |

— patent US20240376090A1, “ISOXAZOLE DERIVATIVES AS MODULATORS OF THE 5-HT2A SEROTONIN RECEPTOR USEFUL FOR THE TREATMENT OF DISORDERED RELATED THERETO” (Arena Pharmaceuticals, Inc., priority 2020, published 2024)
